Square brackets hold non-standard residues; d marks the D form. Peptide text beside a SMILES is read from it. * marks the point of attachment. dPhe(4-NHCONH2) = NC(=O)Nc1ccc(C[C@@H](N)C(=O)O)cc1; Dihydroorotyl(S) = O=C1C[C@@H](C(=O)*)NC(=O)N1; dPhe(4-Cl) = N[C@H](Cc1ccc(Cl)cc1)C(=O)O; Phe(4-NH2) = Nc1ccc(C[C@H](N)C(=O)O)cc1; d2Nal = N[C@H](Cc1ccc2ccccc2c1)C(=O)O; Lys(iPr) = CC(C)NCCCC[C@H](N)C(=O)O; d3Pal = N[C@H](Cc1cccnc1)C(=O)O
Key:
patients with BPH [1] = assay: Prostate volume by transrectal ultrasound, clinical trial; format: in vivo, men
Excerpt: (§1) 2] Efficacy Endpoints—the measured Peak Urinary Flow, Post-void Residual Volume, and Prostate Volume.
(§2) After the initial 6-week treatment period of the exploratory study had been completed, a 12-month follow-up period looking at long-term efficacy commenced. Interim data of the main efficacy variables (IPSS, IPSS Global QoL, prostate volume, urinary flow, and post-void residual volume—measured as set out below) after 6 months' follow-up are also presented herein Table 1, 2, 3 FIG. 1b), together with some IPSS data at 9 and 12 months (FIG. 1b).
The prostate volume was measured by transrectal ultrasound with the patient in lateral position. The prostatic gland was sonicated from two directions perpendicular to one another resulting in three cursor positions set by the urologist. The volume was calculated automatically. The investigations were performed by urologists by methods known in the art.

[2] = in vivo
patients with BPH [3] = assay: Post-void residual volume by transabdominal ultrasound, clinical trial; format: in vivo, men; details: for Mean post-void residual volume: all treatment groups
Description: as §1
The Post-void Residual Volume (PVR) was evaluated by transabdominal ultrasound. The urine bladder was sonicated from two directions perpendicular to one another resulting in three cursor positions set by the urologist. The volume was calculated automatically. The investigations were performed by urologists by methods known in the art.

patients with BPH [4] = assay: International Prostate Symptom Score (IPSS) questionnaire, clinical trial in BPH patients; format: in vivo, men; details: for Improvements in mean sum of IPSS scores: 9 and 12 months follow-up
Description: For each patient, the following parameters were measured or assessed (using the methods discussed below), at time points of screening (e.g. −7 days) day 0 (“baseline”), day 14, day 28 and day 42:
as §2
The IPSS was developed in 1991 by the American Urological Association to assess the severity of urinary symptoms related to BPH (Barry, M. J., et al., The American Urological Association symptom index for benign prostatic hyperplasia. The Measurement Committee of the American Urological Association. J Urol, 1992. 148(5): p. 1549-57; discussion 1564). It has been widely used in clinical studies, has undergone extensive validation and its psychometric properties are well documented in both the original version (containing a 1-month recall) as well as the ‘acute’ version used in this study (containing a one-week recall). The WHO has recommended the use of this instrument for the evaluation of BPH and it is considered to be the internationally accepted, standard questionnaire for assessing lower urinary tract symptoms.
The patients were asked to complete the IPSS questionnaire to evaluate their urinary symptoms. The IPSS is a patient-administered questionnaire containing seven items to evaluate symptoms of urinary obstruction (incomplete emptying, frequency, hesitancy, urgency, weak stream, straining, nocturia) over the preceding week. Each urinary symptom question is assigned points from 0 to 5 indicating increasing severity of the particular symptom. The total score can therefore range from 0 to 35 (0-7: mildly symptomatic; 8-19: moderately symptomatic; 20-35: severely symptomatic). A reduction in score over the treatment is indicative of improvement.

[5] = Month 6 follow-up, 32 mg group, n=7
[6] = Month 6 follow-up, 64 mg group, n=4
[7] = Month 6 follow-up, 16+16 mg group, n=6
[8] = Month 6 follow-up, 32+32 mg group, n=7
[9] = Day 42, all treatment groups combined
[10] = Month 6 follow up, 32 mg group, n=7
[11] = Month 6 follow up, 64 mg group, n=4
[12] = Month 6 follow up, 16+16 mg group, n=6
[13] = Month 6 follow up, 32+32 mg group, n=7
[14] = baseline, all treatment groups combined

## CC(=O)N[C@H](Cc1ccc2ccccc2c1)C(=O)N[C@H](Cc1ccc(Cl)cc1)C(=O)N[C@H](Cc1cccnc1)C(=O)N[C@@H](CO)C(=O)N[C@@H](Cc1ccc(NC(=O)[C@@H]2CC(=O)NC(=O)N2)cc1)C(=O)N[C@H](Cc1ccc(NC(N)=O)cc1)C(=O)N[C@@H](CC(C)C)C(=O)N[C@@H](CCCCNC(C)C)C(=O)N1CCC[C@H]1C(=O)N[C@H](C)C(N)=O [Degarelix, D-Alaninamide, N-acetyl-3-(2-naphthalenyl)-D-alanyl-4-chloro-D-phenylalanyl-3-(3-pyridinyl)-D-alanyl-L-seryl-4-[[[(4S)-hexahydro-2,6-dioxo-4-pyrimidinyl]carbonyl]amino]-L-phenylalanyl-4-[(aminocarbonyl)amino]-D-phenylalanyl-L leucyl-N6-(1-methylethyl)-L-lysyl-L-prolyl] (Ac-[d2Nal][dPhe(4-Cl)][d3Pal]S[Phe(4-NH2)](Dihydroorotyl(S))[dPhe(4-NHCONH2)]L[Lys(iPr)]P[dA]-NH2)
Patients with BPH [1]; Baseline of 6-month follow-up patients, 32 mg group, n=7
  Mean (SD) Prostate Volume: 45.9 (n = 7) mL
Patients with BPH [1]; Baseline of 6-month follow-up patients, 64 mg group, n=4
  Mean (SD) Prostate Volume: 38.7 (n = 4) mL
Patients with BPH [1]; Baseline of 6-month follow-up patients, 16+16 mg group, n=6
  Mean (SD) Prostate Volume: 40.8 (n = 6) mL
Patients with BPH [1]; Baseline of 6-month follow-up patients, 32+32 mg group, n=7
  Mean (SD) Prostate Volume: 37.1 (n = 7) mL
Patients with BPH [1]; Baseline, 32 mg group, N=12
  Mean (SD) Prostate Volume: 48.7 (21.0) mL
Patients with BPH [1]; Baseline, 64 mg group, N=13
  Mean (SD) Prostate Volume: 38.9 (9.0) mL
Patients with BPH [1]; Baseline, 16+16 mg group, N=13
  Mean (SD) Prostate Volume: 42.0 (12.1) mL
Patients with BPH [1]; Baseline, 32+32 mg group, N=12
  Mean (SD) Prostate Volume: 38.1 (7.1) mL
Patients with BPH [1]; Day 42, 32 mg group
  Prostate Volume Change from Baseline: −13.9 (14.7) mL
  Prostate Volume Percentage Change from Baseline: −25.1 (18.0) %
Patients with BPH [1]; Day 42, 64 mg group
  Prostate Volume Change from Baseline: −8.2 (10.2) mL
  Prostate Volume Percentage Change from Baseline: −19.7 (23.2) %
Patients with BPH [1]; Day 42, 16+16 mg group
  Prostate Volume Change from Baseline: −7.5 (7.7) mL
  Prostate Volume Percentage Change from Baseline: −17.0 (16.7) %
Patients with BPH [1]; Day 42, 32+32 mg group
  Prostate Volume Change from Baseline: −9.4 (9.3) mL
  Prostate Volume Percentage Change from Baseline: −23.5 (20.9) %
Patients with BPH [1]; [5]
  Prostate Volume Change from Baseline: −11.6 (5.1) mL
  Prostate Volume Percentage Change from Baseline: −25.6 (8.0) %
Patients with BPH [1]; [6]
  Prostate Volume Change from Baseline: −9.7 (10.4) mL
  Prostate Volume Percentage Change from Baseline: −21.5 (20.6) %
Patients with BPH [1]; [7]
  Prostate Volume Change from Baseline: −11.2 (4.4) mL
  Prostate Volume Percentage Change from Baseline: −27.8 (8.7) %
Patients with BPH [1]; [8]
  Prostate Volume Change from Baseline: −10.6 (8.8) mL
  Prostate Volume Percentage Change from Baseline: −27.1 (17.3) %
[2]
  Degarelix Cmax and AUC values: higher Cmax and AUC values
Patients with BPH [3]; Day 14
  Mean post-void residual volume: decreased
Patients with BPH [3]; Day 42, all groups
  Number of patients with post-void residual volume decreased vs baseline: 33 patients
  Number of patients with post-void residual volume increased vs baseline: 17 patients
Patients with BPH [3]; Day 42
  Mean post-void residual volume: lower than the baseline value
Patients with BPH [4]; 32 mg dose, 28 and 42 day timepoints (FIG. 1c)
  IPSS Q1 (incomplete emptying), Q2 (frequency), Q4 (urgency) score, change from baseline: pronounced effect
Patients with BPH [4]; 32 mg group (FIG. 1b)
  Improvements in mean sum of IPSS scores: still indicated
Patients with BPH [4]; 32+32 mg group (FIG. 1b)
  Improvements in mean sum of IPSS scores: still indicated
Patients with BPH [4]; Baseline of 6 month follow up patients, 32 mg group, n=7
  Mean IPSS score: 22.0 (n = 7)
Patients with BPH [4]; Baseline of 6 month follow up patients, 64 mg group, n=4
  Mean IPSS score: 20.0 (n = 4)
Patients with BPH [4]; Baseline of 6 month follow up patients, 16+16 mg group, n=6
  Mean IPSS score: 18.8 (n = 6)
Patients with BPH [4]; Baseline of 6 month follow up patients, 32+32 mg group, n=7
  Mean IPSS score: 19.3 (n = 7)
Patients with BPH [4]; Baseline, 32 mg group (one s.c. injection Day 0), N=12
  Mean IPSS score: 22.3 (6.5)
Patients with BPH [4]; Baseline, 64 mg group (one s.c. injection Day 0), N=13
  Mean IPSS score: 21.8 (6.2)
Patients with BPH [4]; Baseline, 16+16 mg group (16 mg s.c. Day 0 and Day 14), N=13
  Mean IPSS score: 17.7 (4.5)
Patients with BPH [4]; Baseline, 32+32 mg group (32 mg s.c. Day 0 and Day 14), N=12
  Mean IPSS score: 18.2 (5.4)
Patients with BPH [4]; Day 14, 32 mg group
  IPSS mean change from baseline: −7.8 (8.7)
Patients with BPH [4]; Day 14, 64 mg group
  IPSS mean change from baseline: −8.0 (4.0)
Patients with BPH [4]; Day 14, 16+16 mg group
  IPSS mean change from baseline: −3.2 (5.4)
Patients with BPH [4]; Day 14, 32+32 mg group
  IPSS mean change from baseline: −5.5 (5.0)
Patients with BPH [4]; Day 42, 32 mg group
  IPSS mean change from baseline: −13.2 (6.6)
  Mean IPSS score: 9.1 (6.2)
  Number of patients in IPSS category "severe": 1 patients
  Percentage responders (decrease in IPSS of at least 30% vs baseline): 92%
Patients with BPH [4]; Day 42, 64 mg group
  IPSS mean change from baseline: −10.0 (5.0)
  Mean IPSS score: 11.8 (5.9)
  Number of patients in IPSS category "severe": 1 patients
  Percentage responders (decrease in IPSS of at least 30% vs baseline): 85%
Patients with BPH [4]; Day 42, 64 mg group, listed as degarelix
  IPSS mean change from baseline: −10.0 (SD=5.0)
Patients with BPH [4]; Day 42, 16+16 mg group
  IPSS mean change from baseline: −6.1 (4.6)
  Mean IPSS score: 11.6 (4.5)
  Percentage responders (decrease in IPSS of at least 30% vs baseline): 54%
Patients with BPH [4]; Day 42, 16+16 mg group, listed as degarelix
  IPSS mean change from baseline: −6.1 (SD=4.6)
Patients with BPH [4]; Day 42, 32+32 mg group
  IPSS mean change from baseline: −9.6 (4.7)
  Mean IPSS score: 8.6 (5.7)
  Percentage responders (decrease in IPSS of at least 30% vs baseline): 83%
Patients with BPH [4]; Day 42, 32+32 mg group, listed as degarelix
  IPSS mean change from baseline: −9.6 (SD=4.7)
Patients with BPH [4]; [9]
  Number of patients in IPSS category "mild": 17 patients
  Number of patients in IPSS category "moderate": 31 patients
  Number of patients in IPSS category "severe": 2 patients
Patients with BPH [4]; [10]
  IPSS mean change from baseline: −11.6 (8.3)
  Mean IPSS score: 10.4 (6.3)
  Percentage responders (decrease in IPSS of at least 30% vs baseline): 86%
Patients with BPH [4]; [11]
  IPSS mean change from baseline: −4.0 (3.6)
  Mean IPSS score: 16.0 (8.7)
  Percentage responders (decrease in IPSS of at least 30% vs baseline): 5%
Patients with BPH [4]; [12]
  IPSS mean change from baseline: −2.5 (4.3)
  Mean IPSS score: 16.3 (4.7)
  Percentage responders (decrease in IPSS of at least 30% vs baseline): 33%
Patients with BPH [4]; [13]
  IPSS mean change from baseline: −12.6 (9.6)
  Mean IPSS score: 6.7 (4.5)
  Percentage responders (decrease in IPSS of at least 30% vs baseline): 86%
Patients with BPH [4]; [14]
  Number of patients in IPSS category "moderate": 27 patients
  Number of patients in IPSS category "severe": 23 patients
